Where two headings read alike, the source gives them in different places.
Legend:
mycobacteria marinum = experiment: Example 7 finger infection of a patient; assay type: in vivo, human; conditions: eleven days of antibiotics before the composition
Description: Action against Mycobacteria: A person with four-month long history of an infection on the posterior aspect of their right ring finger was treated. […] After failing two full courses of oral antibiotics, over the previous four months, the patient was given a third round of antibiotics, this time Clarythromycin, after their finger's condition had worsened.

MRSA = conditions: human, in vivo; cited from earlier work
Enterococcus = experiment: Example 6 infected decubitus ulcer of a patient; assay type: in vivo, human; conditions: five days of antibiotic before the composition
From the text: Both swabs were sent to the lab and a count of colony-forming units (CFUs) was ordered.

[1] = test system: ATCC 29213 (MSSA) and ATCC 43330 (MRSA)
Description: Testing was conducted at a pathology laboratory certified for microbiology testing by a physician and a microbiologist. A double blind, randomized controlled experiment was conducted to evaluate the SBDS surfactant against bacteria in Petri dishes.
(§1) Bacterial strain: Two well characterized strains of methicillin-sensitive Staphylococcus aureus (MSSA) and methicillin-resistant Staphylococcus aureus (MRSA) were used. Specifically, experiments used ATCC 29213 (MSSA) and ATCC 43330 (MRSA), both beta-lactamase positive strains, which represent greater than 90% of the respective strains in the American population.
(§2) Petri dish preparation: A sterile cotton swab (American Scientific Products, McGraw Park, Ill.) was dipped into the cultures and used to swab the entire surface of 150×15 mm Petri dishes containing 75 ml of standard Mueller-Hinton agar. Two Petri dishes were inoculated with ATCC 29213 (MSSA and two Petri dishes with ATCC 43330 (MRSA). One Petri dish of each group (MSSA and MRSA) was set aside as the controls. The other two Petri dishes (MSSA and MRSA) were divided up in quadrants, and each quadrant was labeled B, C, D or E.
To evaluate a wider range of surfactant concentrations, cleanser compositions were prepared as follows: A surfactant solution and a stock solution were mixed in various ratios to produce four skin cleanser solutions having four different surfactant concentrations of […], weight-to-weight. The amount of other ingredients in each of the four skin cleanser solutions was less than 1% concentration weight-to-weight.
Cleanser Testing: Four samples of the cleanser with the four different concentrations of the surfactant […] were placed into four separate, unmarked bottles. Each bottle was randomly labeled (B, C, D, or E), and the microbiologist conducting the study was unaware of any difference between the solutions.
(§3) Application: Holding each bottle vertically, the microbiologist added a single drop from each bottle (B, C, D, or E) to the corresponding quadrant of the labeled Petri dish. All four Petri dishes were placed in an incubator overnight at 37 degrees Celsius, and examined 20 hours later. Petri dishes were compared to the corresponding controls, and zones of inhibition were characterized by the largest point of diameter of the circle or oval.

MRSA strains = conditions: averaged over three repeated experiments
From the text: as §1, §2, §3

## CC[C@H]1OC(=O)[C@H](C)[C@@H](O[C@H]2C[C@@](C)(OC)[C@@H](O)[C@H](C)O2)[C@H](C)[C@@H](O[C@@H]2O[C@H](C)C[C@H](N(C)C)[C@H]2O)[C@](C)(OC)C[C@@H](C)C(=O)[C@H](C)[C@@H](O)[C@]1(C)O [Clarythromycin]
Mycobacteria marinum
  change in symptoms on antibiotic: no change in symptoms

## CN[C@H](CC(C)C)C(=O)N[C@H]1C(=O)N[C@@H](CC(N)=O)C(=O)N[C@H]2C(=O)N[C@H]3C(=O)N[C@H](C(=O)N[C@H](C(=O)O)c4cc(O)cc(O)c4-c4cc3ccc4O)[C@H](O)c3ccc(c(Cl)c3)Oc3cc2cc(c3O[C@@H]2O[C@H](CO)[C@@H](O)[C@H](O)[C@H]2O[C@H]2C[C@](C)(N)[C@H](O)[C@H](C)O2)Oc2ccc(cc2Cl)[C@H]1O [Vancomycin]
MRSA
  share of MRSA patients for whom usually effective: about 40%

## O=C(O)c1cn(C2CC2)c2cc(N3CCNCC3)c(F)cc2c1=O [ciprofloxacin]
Enterococcus
  course of ulcer on antibiotic: showed signs of worsening

## Sodium Dodecylbenzene Sulfonate [surfactant]
[1]; surfactant concentration 0.5%, single drop, 20 hours, 37 degrees Celsius
  difference from controls: no difference between the controls
[1]; surfactant concentration 1%
  inhibition of colony forming units (CFUs): approximately 50%
[1]; surfactant concentration 2%
  inhibition of colony forming units (CFUs): approximately 50%
[1]; surfactant concentration 8%
  diameter of circle of clear inhibition: approximately 40 mm
MRSA strains; Surfactant conc. 1.00% (vol. %)
  Diameter of Zone of Inhibition (mm): No Change
MRSA strains; Surfactant conc. 2.30% (vol. %)
  Diameter of Zone of Inhibition (mm): 35.3 mm
MRSA strains; Surfactant conc. 2.50% (vol. %)
  Diameter of Zone of Inhibition (mm): 33.7 mm
MRSA strains; Surfactant conc. 2.80% (vol. %)
  Diameter of Zone of Inhibition (mm): 32.7 mm
MRSA strains; Surfactant conc. 3.30% (vol. %)
  Diameter of Zone of Inhibition (mm): 37.3 mm
MRSA strains; Surfactant conc. 4.00% (vol. %)
  Diameter of Zone of Inhibition (mm): 39.3 mm
MRSA strains; Surfactant conc. 4.90% (vol. %)
  Diameter of Zone of Inhibition (mm): 41.7 mm
MRSA strains; Surfactant conc. 6.50% (vol. %)
  Diameter of Zone of Inhibition (mm): 39 mm
MRSA strains; Surfactant conc. 9.30% (vol. %)
  Diameter of Zone of Inhibition (mm): 34 mm
MRSA strains; Surfactant conc. 14.80% (vol. %)
  Diameter of Zone of Inhibition (mm): 42.3 mm

— US10894032B2, “Microbial-relief composition” (Curazene, LLC, priority 2014, dated 2021)
